How the values were obtained:
human mAChR M1 [1] = target: T1, human mAChR M1 (Homo sapiens, UniProt P11229); test: mAChR M1 cell-based functional assay (calcium mobilization), PAM mode: increase in the EC20 acetylcholine response
T1 sequence (P11229 1-460): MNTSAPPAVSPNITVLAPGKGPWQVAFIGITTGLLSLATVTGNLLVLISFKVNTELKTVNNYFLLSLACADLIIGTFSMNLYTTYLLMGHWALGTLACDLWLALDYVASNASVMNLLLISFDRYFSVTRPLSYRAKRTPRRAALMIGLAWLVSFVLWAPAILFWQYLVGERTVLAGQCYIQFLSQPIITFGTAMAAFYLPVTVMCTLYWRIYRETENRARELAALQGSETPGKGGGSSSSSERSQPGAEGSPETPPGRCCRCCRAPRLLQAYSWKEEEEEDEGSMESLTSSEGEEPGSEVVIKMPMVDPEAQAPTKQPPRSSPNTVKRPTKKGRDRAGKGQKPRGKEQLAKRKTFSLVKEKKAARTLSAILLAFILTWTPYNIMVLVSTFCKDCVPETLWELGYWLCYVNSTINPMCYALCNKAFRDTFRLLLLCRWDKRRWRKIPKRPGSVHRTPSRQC
Outline: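 PAM readout is the concentration-dependent rise in the EC20 acetylcholine calcium signal, fitted to a four-parameter logistic (EC50, Emax). Compounds were preincubated from 4 s before ACh at 144 s (EC20) and 230 s (EC80). hM1-expressing CHO-K1 cells loaded with Fluo-4, FDSS ratio read.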

human mAChR M1 [2] = target: T1, human mAChR M1; test: mAChR M1 cell-based functional assay (calcium mobilization), agonist mode: compound alone, Emax relative to acetylcholine maximum; details: for Agonist Activity Human M1 EC50 / EC50: human mAChR M1; for Emax: relative to the maximum for acetylcholine
Outline: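 Agonist activity is the concentration-dependent rise in intracellular calcium (Fluo-4, 1 Hz read) after compound addition, measured before any acetylcholine was added, in stable hM1 CHO-K1 cells. Curves were 11-point, 1:3 dilutions fitted by four-parameter logistic. Emax is given as a fraction of maximal acetylcholine response.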

| SMILES | EC50 (human mAChR M1 [1]) [µM] | Emax (human mAChR M1 [1]) [%] | Agonist Activity Human M1 EC50 (human mAChR M1 [2]) | Emax (human mAChR M1 [2]) [%] | EC50 (human mAChR M1 [2]) [µM] |
| --- | --- | --- | --- | --- | --- |
| [2H]C1([2H])c2ncccc2C(=O)N1Cc1c(F)cc(-c2ccc(C)c3nn(C)cc23)cc1F [Compound 27, 6-(4-(2,7-dimethyl-2H-indazol-4-yl)-2,6-difluorobenzyl)-6,7-dihydro-5H-pyrrolo[3,4-b]pyridin-5-one-7,7-d^2] | 0.542 | 84 | Inactive | 4 | – |
| [2H]C1([2H])c2ncccc2C(=O)N1Cc1c(C)cc(-c2ccnc3nn(C)cc23)cc1F [Compound 201, 6-(2-fluoro-6-methyl-4-(2-methyl-2H-pyrazolo[3,4-b]pyridin-4-yl)benzyl)-6,7-dihydro-5H-pyrrolo[3,4-b]pyridin-5-one-7,7-d2] | 0.332 | 83 | – | 43 | 5.2 |
| [2H]C1([2H])c2ncccc2C(=O)N1Cc1ccc(-c2cncc3nn(C)cc23)cc1F [Compound 120, 6-(2-fluoro-4-(2-methyl-2H-pyrazolo[3,4-c]pyridin-4-yl)benzyl)-6,7-dihydro-5H-pyrrolo[3,4-b]pyridin-5-one-7,7-d2] | 2.82 | 66 | Inactive | 2 | – |
| [2H]C1([2H])c2ncccc2C(=O)N1Cc1c(C)cc(-c2ccc(C(F)(F)F)c3nn(C)cc23)cc1F [Compound 200, 6-(2-fluoro-6-methyl-4-(2-methyl-7-(trifluoromethyl)-2H-indazol-4-yl)benzyl)-6,7-dihydro-5H-pyrrolo[3,4-b]pyridin-5-one-7,7-d2] | 0.768 | 83 | – | 15 | ≥ 10 |
| [2H]C1([2H])c2ncccc2C(=O)N1Cc1c(F)cc(-c2ccc(OCCOC)c3nn(C)cc23)cc1OCC(C)C [Compound 218, 6-(2-fluoro-6-isobutoxy-4-(7-(2-methoxyethoxy)-2-methyl-2H-indazol-4-yl)benzyl)-6,7-dihydro-5H-pyrrolo[3,4-b]pyridin-5-one-7,7-d2] | 0.516 | 79 | – | 25 | 7.76 |
| [2H]C1([2H])c2ncccc2C(=O)N1Cc1c(F)cc(-c2ccc(C(F)(F)F)c3c2cnn3C([2H])([2H])[2H])cc1F [Compound 244, 6-(2,6-difluoro-4-(1-(methyl-d3)-7-(trifluoromethyl)-1H-indazol-4-yl)benzyl)-6,7-dihydro-5H-pyrrolo[3,4-b]pyridin-5-one-7,7-d2] | > 10 | 34 | Inactive | 2 | – |
| [2H]C1([2H])c2ncccc2C(=O)N1Cc1c(F)cc(-c2cccc3c2cnn3C(F)F)cc1F [Compound 243, 6-(4-(1-(difluoromethyl)-1H-indazol-4-yl)-2,6-difluorobenzyl)-6,7-dihydro-5H-pyrrolo[3,4-b]pyridin-5-one-7,7-d2] | > 10 | 34 | Inactive | 5 | – |
| [2H]C1([2H])c2ncccc2C(=O)N1Cc1c(F)cc(-c2cccc3nn(C)cc23)cc1N(C)C [Compound 229, 6-(2-(dimethylamino)-6-fluoro-4-(2-methyl-2H-indazol-4-yl)benzyl)-6,7-dihydro-5H-pyrrolo[3,4-b]pyridin-5-one-7,7-d2] | ≥ 10 | 42 | Inactive | 4 | – |
| [2H]C1([2H])c2ncccc2C(=O)N1Cc1c(F)cc(-c2cccc3nn(C)cc23)cc1N1CCC1 [Compound 221, 6-(2-(azetidin-1-yl)-6-fluoro-4-(2-methyl-2H-indazol-4-yl)benzyl)-6,7-dihydro-5H-pyrrolo[3,4-b]pyridin-5-one-7,7-d2] | 2.69 | 82 | Inactive | 2 | – |
| [2H]C1([2H])c2ncccc2C(=O)N1Cc1c(F)cc(-c2ccc(F)c3c2cnn3C([2H])([2H])[2H])cc1F [Compound 68, 6-(2,6-difluoro-4-(7-fluoro-1-(methyl-d3)-1H-indazol-4-yl)benzyl)-6,7-dihydro-5H-pyrrolo[3,4-b]pyridin-5-one-7,7-d2] | > 10 | 64 | Inactive | 2 | – |
| [2H]C1([2H])c2ncccc2C(=O)N1Cc1c(F)cc(-c2ccc(OC(F)(F)F)c3nn(C)cc23)cc1F [Compound 103, 6-(2,6-difluoro-4-(2-methyl-7-(trifluoromethoxy)-2H-indazol-4-yl)benzyl)-6,7-dihydro-5H-pyrrolo[3,4-b]pyridin-5-one-7,7-d2] | 1.55 | 73 | Inactive | 2 | – |
| [2H]C1([2H])c2ncccc2C(=O)N1Cc1c(F)cc(-c2ccc(F)c3nn(C)cc23)cc1OCC(C)C [Compound 214, 6-(2-fluoro-4-(7-fluoro-2-methyl-2H-indazol-4-yl)-6-isobutoxybenzyl)-6,7-dihydro-5H-pyrrolo[3,4-b]pyridin-5-one-7,7-d2] | 1.29 | 79 | Inactive | 2 | – |
| [2H]C1([2H])c2ncccc2C(=O)N1Cc1ccc(-c2ccc(O[C@@H]3CCOC3)c3nn(C)cc23)cc1F [Compound 151, (R)-6-(2-fluoro-4-(2-methyl-7-((tetrahydrofuran-3-yl)oxy)-2H-indazol-4-yl)benzyl)-6,7-dihydro-5H-pyrrolo[3,4-b]pyridin-5-one-7,7-d2] | 0.694 | 76 | – | 22 | ≥ 10 |
| [2H]C1([2H])c2ncccc2C(=O)N1Cc1c(F)cc(-c2cnc3nn(C)cc3c2)cc1F [Compound 3, 6-(2,6-difluoro-4-(2-methyl-2H-pyrazolo[3,4-b]pyridin-5-yl)benzyl)-6,7-dihydro-5H-pyrrolo[3,4-b]pyridin-5-one-7,7-d2] | 0.9 | 56 | – | 31 | 6.92 |
| [2H]C1([2H])c2ncccc2C(=O)N1Cc1c(F)cc(-c2ccc(OC3CC3)c3nn(C)cc23)cc1Cl [Compound 169, 6-(2-chloro-4-(7-cyclopropoxy-2-methyl-2H-indazol-4-yl)-6-fluorobenzyl)-6,7-dihydro-5H-pyrrolo[3,4-b]pyridin-5-one-7,7-d2] | 0.63 | 81 | Inactive | 7 | – |

Compounds with a lower EC50 (human mAChR M1 [1]), results first:

| EC50 (human mAChR M1 [1]) [µM] | Emax (human mAChR M1 [1]) [%] | Agonist Activity Human M1 EC50 (human mAChR M1 [2]) | Emax (human mAChR M1 [2]) [%] | EC50 (human mAChR M1 [2]) [µM] | SMILES |
| --- | --- | --- | --- | --- | --- |
| 0.248 | 86 | – | 54 | 5.98 | [2H]C1([2H])c2ncccc2C(=O)N1Cc1c(F)cc(-c2ccc(F)c3nn(C)cc23)cc1C1CC1 [Compound 205, 6-(2-cyclopropyl-6-fluoro-4-(7-fluoro-2-methyl-2H-indazol-4-yl)benzyl)-6,7-dihydro-5H-pyrrolo[3,4-b]pyridin-5-one-7,7-d2] |
| 0.244 | 80 | – | 19 | 6.23 | [2H]C([2H])([2H])Oc1cnc2c(c1)C(=O)N(Cc1ccc(-c3cccc4nn(C)cc34)cc1)C2([2H])[2H] [Compound 83, 3-(methoxy-d3)-6-(4-(2-methyl-2H-indazol-4-yl)benzyl)-6,7-dihydro-5H-pyrrolo[3,4-b]pyridin-5-one-7,7-d2] |
| 0.195 | 27 | Inactive | 2 | – | [2H]C1([2H])c2ncccc2C(=O)N1Cc1c(F)cc(-c2cc(F)c(F)c3nn(C)cc23)cc1F [Compound 105, 6-(4-(6,7-difluoro-2-methyl-2H-indazol-4-yl)-2,6-difluorobenzyl)-6,7-dihydro-5H-pyrrolo[3,4-b]pyridin-5-one-7,7-d2] |
| 0.161 | 65 | Inactive | 2 | – | [2H]C([2H])([2H])Oc1cnc2c(c1)C(=O)N(Cc1ccc(-c3ccc4nn(C)cc4c3)cc1F)C2([2H])[2H] [Compound 111, 6-(2-fluoro-4-(2-methyl-2H-indazol-5-yl)benzyl)-3-(methoxy-d3)-6,7-dihydro-5H-pyrrolo[3,4-b]pyridin-5-one-7,7-d2] |
| 0.159 | 48 | Inactive | 2 | – | [2H]C1([2H])c2ncccc2C(=O)N1Cc1c(F)cc(-c2cc(C(F)F)cc3nn(C)cc23)cc1F [Compound 81, 6-(4-(6-(difluoromethyl)-2-methyl-2H-indazol-4-yl)-2,6-difluorobenzyl)-6,7-dihydro-5H-pyrrolo[3,4-b]pyridin-5-one-7,7-d2] |
| 0.119 | 84 | – | 37 | 7.52 | [2H]C1([2H])c2ncccc2C(=O)N1Cc1c(F)cc(-c2cccc3nn(C([2H])([2H])[2H])cc23)cc1C1CC1 [Compound 190, 6-(2-Cyclopropyl-6-fluoro-4-(2-(methyl-d3)-2H-indazol-4-yl)benzyl)-6,7-dihydro-5H-pyrrolo[3,4-b]pyridin-5-one-7,7-d2] |
